Laboratory results as given in patent US8889123B2, “Compositions and soft tissue replacement methods” (Allergan, Inc., priority 2010, dated 2014).

Columns and labels:
FGF-2 [1] = experiment: Incisional wound model, FGF-2 expression in skin wound tissue by Western blot; format: in vivo, Sprague-Dawley rats; conditions: topical 0.004% twice daily vs vehicle
Description: (§1) To test whether the compounds of Formula I promote the formation of blood vessels, and incisional wound model was employed over a 14-day period. Sprague-Dawley rats (180-200 g) were anesthetized, the backs shaved, and a 2-cm long incision was made on the back skin of rats under sterile conditions, reaching the deep fascia. The wound was immediately closed with 4-0 sutures. The animals were topically treated with vehicle or Compound 1 at 0.004% twice daily. The vehicle contains ethanol 30%, propylene glycol 12%, dipropylene glycol 5%, benzyl alcohol 5%, glycerol 3% and normal saline 45%. Biopsy samples of skin wound tissues were analyzed with Western blots day-7 and day-14 post-surgery. Tissue samples about 1 mm thick were taken from both sides of the wound. Protein was extracted, and FGF-2/VEGF expression was monitored, with Western blot analysis.

FGF-2 [2] = experiment: Oral ulcer wound model, FGF-2 up-regulation; format: in vivo
VEGF [3] = experiment: Incisional wound model, VEGF expression in skin wound tissue by Western blot; format: in vivo, Sprague-Dawley rats; conditions: topical 0.004% twice daily vs vehicle
Description: as §1

VEGF [4] = experiment: Oral ulcer wound model, VEGF up-regulation; format: in vivo

For `CC1(C)C(=O)[C@H](C/C=C\CCCC(=O)O)[C@@H](/C=C/[C@H](O)CCc2sc3ccccc3c2Cl)[C@@H]1O` [Compound 1], the “enhanced expression of FGF-2, normalized with β-actin” value (FGF-2 [1]; day-7, P=0.004) was 60%, the “increase in FGF-2 synthesis over the whole study period” value (FGF-2 [1]; whole study period (day-14), P=0.04) was “persisted for the whole study period” and the “up-regulation of FGF-2” value (FGF-2 [2]) was “up-regulation”. For the same compound, the “VEGF expression increase, normalized with β-actin” value (VEGF [3]; day-7, P=0.039) was 25%, the “increase in VEGF synthesis by day-14” value (VEGF [3]; day-14) was “returned to the baseline” and the “up-regulation of VEGF” value (VEGF [4]) was “up-regulation”.
